SMILES strings stand for the structures. Values after ≈ are worked out from the molar mass of the structure shown.

Common to all, as to experiment: ≥ marks a high value that may be exact or a test limit, other limits are often not marked, values filed in µg/mL are converted to µM
Assay [1] has as its system Staphylococcus aureus NCTC 8325.
Assay [2] relates to Escherichia coli ATCC 25922.
Assay [3] relates to Candida albicans ATCC 90028.
In assay [4] the test system is Bacillus subtilis ATCC 6051.
Assay [5] concerns Staphylococcus aureus USA 300.
The subject of assay [6] is Klebsiella pneumoniae ATCC 13883.
Assay [7] deals with Pseudomonas aeruginosa PAO1.
Assay [8] deals with Salmonella typhimurium.
For assay [9], the system named is Staphylococcus aureus.
Assay [10] relates to Escherichia coli.
Assay [11] relates to Bacillus subtilis.
Assay [12] has as its system Escherichia coli DH5alpha.
The subject of assay [13] is Staphylococcus aureus NCTC 10788.

By MIC is commonly meant the lowest concentration that inhibits growth of the organism. Read a low MIC as inhibition by little substance. Take `CC[C@H](C)[C@H](NC(=O)[C@H](C)NC(=O)[C@@H]1CCCN1C(=O)[C@H](CC(C)C)NC(=O)[C@@H](N)Cc1ccccc1)C(=O)N[C@H](C(=O)NCC(=O)N[C@@H](C)C(=O)N[C@@H](C)C(=O)N[C@@H](C)C(=O)N[C@@H](CCCCN)C(=O)N[C@@H](Cc1ccccc1)C(=O)N[C@@H](CC(C)C)C(=O)N1CCC[C@H]1C(=O)N[C@@H](CCCCN)C(=O)N[C@H](C(=O)N[C@@H](Cc1ccccc1)C(=O)N[C@H]1CSSC[C@@H](C(=O)O)NC(=O)[C@H](CCCCN)NC(=O)[C@H](CCCCN)NC(=O)[C@H](CO)NC(=O)[C@H]([C@@H](C)CC)NC(=O)[C@H](C(C)C)NC1=O)[C@@H](C)CC)C(C)C` [FLPAIVGAAAKFLPKIFCVISKKC]: the values for the MIC in assay [1] and in [2] were 3 µM (≈ 7.69 µg/mL) and 15 µM (≈ 38.4 µg/mL), respectively.

`CC[C@H](C)[C@H](NC(=O)[C@H](CC(C)C)NC(=O)[C@H](CCCCN)NC(=O)[C@H](CO)NC(=O)[C@@H](NC(=O)[C@H](C)NC(=O)[C@H](CCCCN)NC(=O)[C@@H](NC(=O)[C@H](C)NC(=O)[C@H](Cc1cnc[nH]1)NC(=O)[C@@H]1CCCN1C(=O)[C@@H](NC(=O)[C@H](CC(C)C)NC(=O)[C@@H]1CCCN1C(=O)CNC(=O)[C@@H](NC(=O)[C@H](Cc1ccc(O)cc1)NC(=O)[C@H](CCCCN)NC(=O)[C@H](CCSC)NC(=O)[C@H](Cc1ccccc1)NC(=O)CN)[C@@H](C)CC)[C@@H](C)CC)C(C)C)[C@@H](C)CC)C(=O)O` [GFMKYIGPLIPHAVKAISKLI]: the MIC in assay [3] was no less than 100 µM; in assay [1], no less than 50 µM; in assay [2], 25 µM (≈ 57.4 µg/mL).

In [4], `CC[C@H](C)[C@H](NC(=O)[C@H](CC(N)=O)NC(=O)[C@H](CC(N)=O)NC(=O)CNC(=O)[C@H](CCC(=O)O)NC(=O)[C@H](CC(N)=O)NC(=O)[C@H](CCC(=O)O)NC(=O)[C@H](CCC(N)=O)NC(=O)[C@H](CCC(=O)O)NC(=O)[C@H](CCC(=O)O)NC(=O)[C@@H](N)CCCCN)C(=O)N[C@@H](Cc1ccccc1)C(=O)N[C@H](C(=O)N[C@@H](CC(N)=O)C(=O)N[C@@H](CCCN=C(N)N)C(=O)N[C@@H](Cc1cnc[nH]1)C(=O)N[C@H](C(=O)N[C@H](C(=O)N[C@@H](CC(=O)O)C(=O)N[C@@H](CCCCN)C(=O)N[C@@H](CC(C)C)C(=O)O)C(C)C)[C@@H](C)CC)C(C)C` [KEEQENEGNNIFVNRHIVDKL] returned an MIC of no less than 1000 µM.

Consider `CC[C@H](C)[C@H](NC(=O)[C@@H](NC(=O)[C@@H]1CCCN1C(=O)[C@H](CC(C)C)NC(=O)[C@@H](N)Cc1ccccc1)[C@@H](C)CC)C(=O)N[C@@H](C)C(=O)N[C@@H](CCCCN)C(=O)N[C@H](C(=O)N[C@@H](CC(C)C)C(=O)N[C@@H](CO)C(=O)NCC(=O)N[C@@H](CC(C)C)C(=O)N[C@@H](CC(C)C)C(N)=O)C(C)C` [FLPIIAKVLSGLL], for which the MIC in [1] worked out at 15 µM (≈ 20.7 µg/mL). This lies in the double-digit micromolar range.

As to `CC(C)C[C@H](NC(=O)[C@H](CC(C)C)NC(=O)[C@H](CCCCN)NC(=O)CNC(=O)[C@H](CC(C)C)NC(=O)[C@H](C)NC(=O)[C@H](CCCCN)NC(=O)[C@H](CC(C)C)NC(=O)[C@H](C)NC(=O)[C@H](CO)NC(=O)[C@H](CC(C)C)NC(=O)[C@H](CC(C)C)NC(=O)CN)C(N)=O` [GLLSALKALGKLL], the MIC in assay [5] was 1.56 µM (≈ 2.02 µg/mL); in assay [6] it was 3.1 µM (≈ 4.02 µg/mL); in assay [2], 3.1 µM (≈ 4.02 µg/mL); in assay [7], greater than 25 µM.

With `CC[C@H](C)[C@@H]1NC(=O)[C@H](C)NC(=O)[C@@H](NC(=O)[C@H](Cc2ccccc2)NC(=O)[C@@H](NC(=O)[C@H](CCCCN)NC(=O)[C@@H]2CCCN2C(=O)[C@H](CC(C)C)NC(=O)[C@H](Cc2ccccc2)NC(=O)[C@H](CC(N)=O)NC(=O)[C@H](C)NC(=O)[C@H](C)NC(=O)[C@H](CCSC)NC(=O)CNC(=O)[C@H](C)NC(=O)[C@@H](NC(=O)[C@H](Cc2ccccc2)NC(=O)[C@@H]2CCCN2C(=O)[C@H](CC(C)C)NC(=O)[C@@H](N)Cc2ccccc2)[C@@H](C)CC)[C@@H](C)CC)CSSC[C@@H](C(=O)O)NC(=O)[C@H](CCCCN)NC(=O)[C@H](CCCCN)NC(=O)[C@H](CO)NC1=O` [FLPFIAGMAANFLPKIFCAISKKC], the MIC in assay [1] amounted to 8 µM (≈ 21 µg/mL); in assay [2], 19 µM (≈ 50 µg/mL).

Compound `CC[C@H](C)[C@H](NC(=O)[C@H](CC(C)C)NC(=O)[C@@H]1CCCN1C(=O)[C@H](CC(C)C)NC(=O)[C@@H](NC(=O)[C@@H](N)Cc1ccccc1)[C@@H](C)CC)C(=O)N[C@@H](C)C(=O)N[C@@H](CO)C(=O)N[C@@H](Cc1ccccc1)C(=O)N[C@@H](CC(C)C)C(=O)N[C@@H](CO)C(=O)N[C@@H](CCCCN)C(=O)N[C@@H](Cc1ccccc1)C(=O)N[C@@H](CC(C)C)C(N)=O` [FILPLIASFLSKFL] came in with an MIC in assay [1] of 12 µM (≈ 19.3 µg/mL).

On to `CC[C@H](C)[C@H](NC(=O)CN)C(=O)N[C@@H](Cc1ccccc1)C(=O)N[C@H](C(=O)N[C@@H](CCCCN)C(=O)N[C@H](C(=O)N[C@@H](CC(N)=O)C(=O)N[C@@H](CCCCN)C(=O)N[C@@H](CCCCN)C(=O)N[C@@H](CCCCN)C(=O)N[C@@H](C)C(=O)N[C@@H](CCCCN)C(=O)N[C@H](C(=O)NCC(=O)N[C@H](C(=O)N[C@@H](Cc1ccccc1)C(=O)N[C@@H](CC(N)=O)C(=O)N[C@H](C(=O)N[C@H](C(=O)N[C@@H](CCCCN)C(=O)N[C@H](C(=O)N[C@H](C(=O)NCC(=O)N[C@@H](CCCCN)C(=O)N[C@@H](CCC(=O)O)C(=O)N[C@@H](C)C(=O)NCC(=O)N[C@@H](CCSC)C(=O)N[C@@H](CC(=O)O)C(=O)N[C@H](C(=O)N[C@H](C(=O)N[C@@H](CCCN=C(N)N)C(=O)N[C@@H](C)C(=O)NCC(=O)N[C@H](C(=O)N[C@@H](CC(=O)O)C(=O)N[C@H](C(=O)N[C@H](C(=O)N[C@@H](CO)C(=O)N[C@H]1CSSC[C@@H](C(=O)O)NC(=O)[C@H](CCC(=O)O)NC(=O)CNC(=O)[C@H](CCCCN)NC(=O)[C@H]([C@@H](C)CC)NC(=O)[C@H](CCCCN)NC1=O)[C@@H](C)CC)[C@@H](C)O)[C@@H](C)CC)[C@@H](C)CC)C(C)C)[C@@H](C)CC)[C@@H](C)O)[C@@H](C)CC)[C@@H](C)CC)C(C)C)[C@@H](C)O)[C@@H](C)CC)[C@@H](C)O` [GIFTKINKKKAKTGVFNIIKTIGKEAGMDVIRAGIDTISCKIKGEC], for which the MIC in assay [1] was 15 µM (≈ 74.1 µg/mL); in assay [2], 1 µM (≈ 4.94 µg/mL).

For `CC[C@H](C)[C@H](NC(=O)[C@H](CCCN=C(N)N)NC(=O)[C@@H](NC(=O)[C@@H](NC(=O)[C@@H](NC(=O)CN)C(C)C)C(C)C)C(C)C)C(=O)NCC(=O)N[C@@H](CCCN=C(N)N)C(=O)N[C@H](C(=O)N[C@H](C(=O)N[C@H](C(=O)N[C@@H](CCCN=C(N)N)C(=O)NCC(=O)N[C@H](C(=O)N[C@@H](CCCN=C(N)N)C(=O)N[C@@H](CCCN=C(N)N)C(N)=O)C(C)C)C(C)C)C(C)C)C(C)C` [GVVVRIGRVVVRGVRR], the MIC in assay [8] was 4 µM (≈ 7.1 µg/mL); in assay [9] it was 8 µM (≈ 14.2 µg/mL); in [10], 8 µM (≈ 14.2 µg/mL); in assay [11], 8 µM (≈ 14.2 µg/mL).

Regarding `CC[C@@H](C)[C@H](N=C(O)[C@H](CO)N=C(O)C(CC(C)C)N=C(O)[C@H](CCSC)N=C(O)[C@@H]1CCCN1C(=O)[C@H](CC(C)C)N=C(O)CN=C(O)[C@H](N)Cc1ccccc1)C(O)=N[C@H](CC(C)C)C(=O)N1CCCC1C(O)=N[C@H](CCCCN)C(O)=N[C@H](C)C(O)=N[C@H](CC(C)C)C(O)=N[C@H](CS)C(O)=N[C@H](C(O)=N[C@H](CC(C)C)C(O)=N[C@H](CC(C)C)C(O)=N[C@H](CCCCN)C(O)=N[C@H](CCCNC(=N)N)C(O)=N[C@H](CCCCN)C(O)=N[C@H](CS)C(=O)O)[C@H](C)CC` (stereo partly specified) [FGLPMLSILPKALCILLKRKC], the MIC in assay [1] is 20 µM (≈ 47.2 µg/mL); in assay [2], 12 µM (≈ 28.3 µg/mL).

Turning to `CC[C@H](C)[C@H](NC(=O)CN)C(=O)NCC(=O)N[C@@H](C)C(=O)N[C@H](C(=O)N[C@@H](CC(C)C)C(=O)N[C@@H](CCCCN)C(=O)N[C@H](C(=O)N[C@@H](CC(C)C)C(=O)N[C@H](C(=O)N[C@H](C(=O)NCC(=O)N[C@@H](C)C(=O)N1CCC[C@H]1C(=O)N[C@@H](C)C(=O)N[C@@H](CC(C)C)C(=O)N[C@H](C(=O)N[C@@H](CO)C(=O)N[C@@H](Cc1c[nH]c2ccccc12)C(=O)N[C@H](C(=O)N[C@@H](CCCCN)C(=O)N[C@@H](CCCN=C(N)N)C(=O)N[C@@H](CCCCN)C(=O)N[C@@H](CCCN=C(N)N)C(=O)N[C@@H](CCC(N)=O)C(=O)N[C@@H](CCC(N)=O)C(N)=O)[C@@H](C)CC)[C@@H](C)CC)[C@@H](C)O)[C@@H](C)O)C(C)C)C(C)C` [GIGAVLKVLTTGAPALISWIKRKRQQ], the MIC was found to be 4.5 µM (≈ 12.6 µg/mL) in [12], 4.3 µM (≈ 12.1 µg/mL) in assay [9] and 2.4 µM (≈ 6.73 µg/mL) in [11].

The compound `CC(C)C[C@H](NC(=O)[C@H](CC(C)C)NC(=O)CNC(=O)CNC(=O)[C@H](CC(C)C)NC(=O)[C@@H](NC(=O)[C@H](CC(N)=O)NC(=O)[C@H](CO)NC(=O)[C@@H](NC(=O)[C@H](CC(C)C)NC(=O)CNC(=O)[C@H](CC(C)C)NC(=O)[C@@H](NC(=O)[C@@H]1CCCN1C(=O)CNC(=O)[C@H](CC(C)C)NC(=O)[C@@H](N)CC(C)C)C(C)C)C(C)C)C(C)C)C(N)=O` [LLGPVLGLVSNVLGGLL] yielded a minimal inhibitory concentration (MIC) in [13] of no less than 157 µM.

These data come from DBAASP.
